Measured values reported in patent US9982021B2, “Composition for dissolving thrombi, and a pharmaceutical composition for treating stenotic or occlusive vascular diseases which comprises the same” (INDUSTRY-ACADEMIC COOPERATION FOUNDATION, YONSEI UNIVERSITY, priority 2010, dated 2018).
Entries after “also recorded” stand apart in the source; their conditions may differ.

Assays:
[1] = tested on: mouse PRP (platelet rich plasma); assay: In vitro platelet aggregation assay (ADP, Aggregometer); format: cell-based; conditions: for IC50: ADP, mouse PRP, read-out: IC50 platelet aggregation inhibition
Text: Saxatilin derivatives and ADP were administrated to mouse PRP (platelet rich plasma) and measured aggregation level using Aggregometer (CHRONO-LOG, USA) to evaluate activity of the present saxatilin derivatives (Table 1).

[2] = Mortality and bleeding after the r-saxatilin treatment; format: in vivo, ICR mice; conditions: 5 mg/kg bolus injection group
Text: Total 51 animals were used for evaluation of thrombolytic effects of r-saxatilin.

[3] = tested on: FeCl3-induced carotid thrombus; assay: Intravenous thrombolysis in FeCl3-induced carotid artery thrombosis model (carotid blood flow); format: in vivo, ICR mice
Experimental: 8-week-old male ICR (Institute of Cancer Research) mice (OrientBio) were used. The care and use of laboratory animals were performed according to institutionally approved protocol in accordance with the National Institutes of Health's Guide for the care and use of laboratory animals. For operative procedures, the animals were anesthetized with an inhalation of 5% isoflurane in a mixture of 70% N2O and 30% O2. Anesthesia was maintained with 2% isoflurane. During the operative procedures, body temperature was monitored continuously with a rectal probe and was maintained at 37.0±0.2° C. by means of a homeothermic blanket control unit and heating pad (Harvard Apparatus, Holliston, Mass.). To test the thrombolytic activity of r-saxatilin in vivo, FeCl3 (Sigma Aldrich, USA)-induced carotid thrombus model was utilized. A midline cervical incision was made, and the left common carotid artery was carefully dissected under a surgical microscope. An ultrasonic Doppler flow probe (Transonic MA0.7PSB) was placed around midportion of the common carotid artery (CCA). Carotid blood flow was obtained with a Transonic TS420 Blood Flow Meter (Transonic Instruments, Ithaca, N.Y.) and iWorx IX-304T data acquisition system (iWorx Systems, Inc., Dover, N.H.). The control baseline flow of the CCA was measured for 5 minutes. After the determination of the control baseline flow, the probe was removed. Oxidative vascular injury with chemical stress was induced by placing a filter paper (700×500 μm) saturated with 50% FeCl3 on the adventitial surface of the midpoint of the exposed CCA for 5 min. After removing the filter paper, the CCA was washed with normal saline and its blood flow was recorded. Thrombus formation and arterial occlusion were determined by decrease of blood flow and the complete occlusion was defined as absence of blood flow maintained for 10 minutes.
Ten minutes after occlusion of the CCA, r-saxatilin was administered intravenously via the left femoral vein by using an infusion pump (KD Scientific Inc., USA) connected to PE-10 tubing. The carotid blood flow was continuously monitored for 2 hours from the initial time of injection.
To evaluate dose response of r-saxatilin, the animals were randomly divided into seven groups (five mice in each group): normal saline (control group), 1, 1.75, 2.5, 3.75, 5.0, and 10.0 mg/kg of r-saxatilin administration groups. 10% of the dose was administered in bolus intravenously and the rest was infused continuously for 60 min.
Effects of r-saxatilin for thrombolysis were assessed according to administration method. For this experiment, a total dose of 5 mg/kg of r-saxatilin was used in each animal, and the animals were divided into four groups (five mice in each group): (a) bolus injection of total dose (5 mg/kg); (b) double bolus injection of r-saxatilin with a half dose (2.5 mg/kg) of r-saxatilin at 10 min after occlusion and 60 min after the first bolus injection; (c) a half dose bolus injection (2.5 mg/kg) at 10 min after occlusion, and then continuous infusion for 60 min of the remaining dose; and (d) bolus injection of 10% of the total dose (0.5 mg/kg) at 10 min after occlusion, and then continuous infusion of the remaining dose (4.5 mg/kg) for 60 min.
The presence and degree of recanalization were assessed by measuring blood flow. Data of blood flow at baseline and those monitored continuously for 2 hours after CCA occlusion were acquired by using iWorx Labscribe2 data acquisition software (version 2.045000). Immediately after 2 hours of blood flow monitoring, the CCA was obtained in all mice, fixed with 4% paraformaldehyde solution, and embedded in paraffin for histological examination. The paraffin blocks were consecutively sectioned in a transverse direction with 3 μm-thickness, mounted on a glass slide, and stained with hematoxylin and eosin.
The carotid blood flow was analyzed by the area under the flow-time curves. […]

[4] = tested on: FeCl3-induced carotid thrombus; assay: as above; format: in vivo, ICR mice; remark: listed apart in the source
[5] = total 5 mg/kg, bolus injection of total dose

## XL2: saxatilin derivative (deletion mutant), SEQ ID NO:7, expressed in Pichia (CKLRPGAQCAEGLCCDQCRFMKEGTICRMARGDDMDDYCNGISAGC; aritificially made peptide comprising Arg-Gly-Asp motif having thrombolytic activity)
[1]
  IC50: 986 nM

## saxatilin
[1]
  IC50: 176 nM
[1]; FIG. 6
  treatment concentration giving similar level of aggregation inhibition: approximately 0.7 μM
[2]
  bleeding in the cervical incision: one animal suffered bleeding
[2]; about 90 min after bolus, total 51 animals
  mortality: one animal was died from bleeding
[3]; 1 mg/kg
  effective recanalization (blood flow >=50% of baseline maintained >30 min), mice: No effective recanalization
[3]; 1 mg/kg i.v., 10% bolus + 60 min infusion, 2 h monitoring
  blood flow, area under flow-time curve, percent of mean control baseline blood flow: 2.36±0.78%
[3]; 1.75 mg/kg
  effective recanalization, mice: No effective recanalization
[3]; 1.75 mg/kg i.v., 10% bolus + 60 min infusion
  blood flow, area under flow-time curve, percent of mean control baseline blood flow: 4.97±3.94%
[3]; 2.5 mg/kg
  effective recanalization, mice: two of five
  time to effective recanalization: 32.92 ± 23.52 min
[3]; 2.5 mg/kg i.v., 10% bolus + 60 min infusion
  blood flow, area under flow-time curve, percent of mean control baseline blood flow: 32.50±33.70%
[3]; 3.75 mg/kg
  effective recanalization, mice: three of five
  time to effective recanalization: 21.75 ± 21.62 min
[3]; 5 mg/kg, 10% bolus + infusion
  effective recanalization, mice: all mice
[3]; 5 mg/kg, bolus 10% of total dose + continuous infusion
  time to effective recanalization: 13.92 ± 6.02 min
[3]; 5 mg/kg, bolus injection of total dose
  time to effective recanalization: 2.86 ± 0.22 min
[3]; 5 mg/kg, double bolus injection
  time to effective recanalization: 13.44 ± 26.31 min
[3]; 5 mg/kg, half dose bolus and continuous infusion of other half
  time to effective recanalization: 19.48 ± 25.94 min
[3]; 10 mg/kg
  effective recanalization, mice: all mice
  time to effective recanalization: 19.46 ± 19.75 min
[3]; 10 mg/kg i.v., 10% bolus + 60 min infusion, listed as r-saxatilin
  blood flow, area under flow-time curve, versus baseline and 5 mg/kg: no significant difference; also recorded: restored nearly to the baseline level
[3]; total 5 mg/kg, bolus 10% of total dose + continuous infusion of remaining dose
  reocclusion: no reocclusion
[3]; [5]
  mean percentage of blood flow compared to baseline blood flow: 77.01±46.11%
  time point of abrupt reocclusion: about 100 min
[3]; total 5 mg/kg, double bolus injection with a half dose (2.5 mg/kg each)
  mean percentage of blood flow compared to baseline blood flow: 85.23±29.95%
[3]; total 5 mg/kg, double bolus injection, after the first injection
  time point of abrupt reocclusion: about 50 min
[3]; total 5 mg/kg, half dose bolus and continuous infusion of other half
  time point of abrupt reocclusion: about 110 min
[3]; total 5 mg/kg, half dose bolus then continuous infusion of remaining dose for 60 min
  mean percentage of blood flow compared to baseline blood flow: 80.72±30.13%
[4]; 20 mg/kg
  restored blood flow (area under flow-time curve): 60.92±39.52%
[4]; 40 mg/kg
  restoration of blood flow and reocclusion: restored to normal blood flow and maintained without reocclusion
